The source of these data is patent US20240116910A1, “Heterocycles as WIP1 Inhibitors” (PMV Pharmaceuticals, Inc., priority 2022, published 2024).

Test [1] addresses recombinant His-tag Wip1 full length protein (amino acids #1-605) (Homo sapiens (Human), UniProt O15297). In words: Wip1 full length phosphatase enzyme FDP assay. Type of test: biochemical. The following applies: fluorescein diphosphate (FDP) substrate, RT 2 hours, fluorescence Ex485/Em535.
Test [2] deals with recombinant His-tag Wip1(2-420) protein (amino acids #2-420) (Homo sapiens (Human), UniProt O15297). Put plainly: Wip1(2-420) phosphatase enzyme FDP assay. Type of test: biochemical. The following applies: fluorescein diphosphate (FDP) substrate, RT 2 hours, fluorescence Ex485/Em535; read-out: WIP1 (Truncated 2-420) FDP Assay: IC50.
Sequence of recombinant His-tag Wip1(2-420) protein (amino acids #2-420) (O15297 2-420): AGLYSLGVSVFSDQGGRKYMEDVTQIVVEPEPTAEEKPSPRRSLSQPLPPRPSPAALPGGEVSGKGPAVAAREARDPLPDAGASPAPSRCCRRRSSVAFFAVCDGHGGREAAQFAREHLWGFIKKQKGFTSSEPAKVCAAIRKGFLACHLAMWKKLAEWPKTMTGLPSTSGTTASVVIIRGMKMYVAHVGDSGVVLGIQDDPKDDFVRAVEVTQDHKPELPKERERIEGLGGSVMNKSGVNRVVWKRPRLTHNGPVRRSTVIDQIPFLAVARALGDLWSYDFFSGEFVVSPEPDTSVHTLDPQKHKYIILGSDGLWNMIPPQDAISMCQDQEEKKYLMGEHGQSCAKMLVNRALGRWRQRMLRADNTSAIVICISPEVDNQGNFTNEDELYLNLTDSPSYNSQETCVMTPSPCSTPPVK

Sequence of recombinant His-tag Wip1 full length protein (amino acids #1-605) (O15297 whole entry, the tested form may be a part): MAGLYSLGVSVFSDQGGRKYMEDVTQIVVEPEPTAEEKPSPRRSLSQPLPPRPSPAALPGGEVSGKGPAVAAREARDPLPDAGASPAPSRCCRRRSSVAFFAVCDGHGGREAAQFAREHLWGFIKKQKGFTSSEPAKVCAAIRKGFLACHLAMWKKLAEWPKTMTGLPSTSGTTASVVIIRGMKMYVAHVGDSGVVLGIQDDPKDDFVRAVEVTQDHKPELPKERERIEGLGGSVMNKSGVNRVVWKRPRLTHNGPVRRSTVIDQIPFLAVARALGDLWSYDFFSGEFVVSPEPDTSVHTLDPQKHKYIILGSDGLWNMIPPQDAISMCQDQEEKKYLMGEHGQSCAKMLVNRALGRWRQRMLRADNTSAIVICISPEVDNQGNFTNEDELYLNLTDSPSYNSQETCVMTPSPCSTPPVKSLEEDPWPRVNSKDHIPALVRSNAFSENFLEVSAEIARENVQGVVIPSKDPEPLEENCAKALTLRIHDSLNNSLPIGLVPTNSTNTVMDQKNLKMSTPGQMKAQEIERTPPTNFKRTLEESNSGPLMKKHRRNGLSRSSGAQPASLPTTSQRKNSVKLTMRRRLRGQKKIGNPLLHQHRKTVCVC

As to `Cc1cc(NC(=O)[C@H](CC2CCCC2)NC(=O)c2cnc(C(C)Nc3cccc(Cl)c3)s2)ccn1` (stereo partly drawn) [Compound 121, (2S)-2-[(2-{1-[(3-chlorophenyl)amino]ethyl}-1,3-thiazol-5-yl)formamido]-3-cyclopentyl-N-(2-methylpyridin-4-yl)propanamide], the IC50 (commonly the concentration that gives 50% inhibition) in test [1] was 19 nM; in test [2], 66 nM.

For `Cc1ncc(Cl)cc1N[C@@H](C)c1ccc(C(=O)N[C@@H](CC2CCCC2)C(=O)NC(C)(C)C#N)s1` [Compound 65, (2S)-2-({5-[(1S)-1-[(5-chloro-2-methylpyridin-3-yl)amino]ethyl]thiophen-2-yl}formamido)-N-(1-cyano-1-methylethyl)-3-cyclopentylpropanamide], the concentration for half-maximal inhibition (IC50) was 10 nM in test [1] and 8 nM in test [2].

Turning to `C[C@@H](Nc1cccc(Cl)c1)c1ncc(C(=O)N[C@@H](CC2CCCC2)C(=O)NC2CC2)s1` [Compound 125, (2S)-2-({2-[(1R)-1-[(3-chlorophenyl)amino]ethyl]-1,3-thiazol-5-yl}formamido)-3-cyclopentyl-N-cyclopropylpropanamide], the concentration for half-maximal inhibition (IC50) in test [1] turned out to be 16 nM; in test [2], 59 nM.

For the molecule `Cc1ncc(Cl)cc1N[C@@H](C)c1ccc(C(=O)N[C@@H](CC2CCCC2)C(=O)NC2COC2)s1` [Compound 27, (2S)-2-({5-[(1S)-1-[(5-chloro-2-methylpyridin-3-yl)amino]ethyl]thiophen-2-yl}formamido)-3-cyclopentyl-N-(oxetan-3-yl)propanamide], the IC50 in test [1] came out at 10 nM; in test [2], 6 nM.

Turning to `Cc1ncc(Cl)cc1NC(C)c1ccc(C(=O)N[C@@H](CC2CCCC2)C(=O)NC23CC(C2)C3)s1` (some centres unmarked) [Compound 117], the concentration for half-maximal inhibition (IC50) in test [1] is 70 nM; in test [2], 41 nM.

As to `COc1ncc(Cl)cc1N[C@@H](C)c1ccc(C(=O)N[C@@H](CC2CCCC2)C(=O)NC2CC2)s1` [Compound 38, (2S)-2-({5-[(1S)-1-[(5-chloro-2-methoxypyridin-3-yl)amino]ethyl]thiophen-2-yl}formamido)-3-cyclopentyl-N-cyclopropylpropanamide], the figures for the concentration for half-maximal inhibition (IC50) in test [1] and in test [2] were 9 nM and 7 nM, respectively.

Consider `Cc1ncc(Cl)cc1N[C@@H](C)c1ccc(C(=O)N[C@@H](CC2CCCC2)C(=O)NC2CCS(=O)(=O)CC2)s1` [Compound 58, (2S)-2-({5-[(1S)-1-[(5-chloro-2-methylpyridin-3-yl)amino]ethyl]thiophen-2-yl}formamido)-3-cyclopentyl-N-(1,1-dioxo-1λ^6-thian-4-yl)propanamide], for which the IC50 in test [1] turned out to be 12 nM; in test [2] it was 9 nM.

For `C[C@H](Nc1cc(Cl)cnc1C1CC1)c1ccc(C(=O)N[C@@H](CC2CCCC2)C(=O)NC2CC2)s1` [Compound 70, (2S)-2-({5-[(1S)-1-[(5-chloro-2-cyclopropylpyridin-3-yl)amino]ethyl]thiophen-2-yl}formamido)-3-cyclopentyl-N-cyclopropylpropanamide], the concentration for half-maximal inhibition (IC50) in test [1] was found to be 8 nM; in test [2], 6 nM.

As for `Cc1ncc(Cl)cc1N[C@@H](C)c1ccc(C(=O)N[C@@H](CC2CCCC2)C(=O)N[C@@H]2CC2(F)F)s1` [Compound 24, (2S)-2-({5-[(1S)-1-[(5-chloro-2-methylpyridin-3-yl)amino]ethyl]thiophen-2-yl}formamido)-3-cyclopentyl-N-[(1R)-2,2-difluorocyclopropyl]propanamide], the IC50 in test [1] and in test [2] was 8 nM in each case.

For the molecule `CC(Nc1ccc(F)c(Cl)c1)c1ccc(C(=O)N[C@@H](CC2CCCC2)C(=O)NC2CC2)s1` (stereo partly drawn) [Compound 3, 5-[1-(3-chloro-4-fluoro-anilino)ethyl]-N-[(1S)-1-(cyclopentylmethyl)-2-(cyclopropylamino)-2-oxo-ethyl]thiophene-2-carboxamide], the half-inhibitory concentration (IC50) came out at 28 nM in test [1] and 60 nM in test [2].
